In patent publication US5116815A, “PF 1022 substance, method of treating helminthic parasitic infection and anthelmintic composition” (Meiji Seika Kaisha Ltd., priority 1989, dated 1992):
Several values for one entry are separate records, joined by “and”; a condition that tells them apart may be missing. Equal values may be shown once.

How the values were obtained:
[1] = tested on: digestive tract nematodes (Haemonchus controtus, Ostertaqia ostertagi, hairworms, cooperids, etc.); experiment: Anthelmintic effect on bovine digestive tract nematodes (EPG); assay type: in vivo; details: cattle
Experimental: The PF 1022 substance was evaluated for its anthelmintic effect on the so-called digestive tract nematodes parasitizing cattle by orally administering it to three head of cattle found to be infected with such nematodes (Haemonchus controtus, Ostertaqia ostertagi, hairworms, cooperids, etc.) by scatoscopy.
The PF 1022 substance was administered either once at 5 mg/kg or for 2 days once daily at 12.5 mg/kg, in the form of a suspension in water, using a stomach catheter. Parasite eggs in feces (EPG) were counted daily for 3 days before administration and for 7 days following administration.

[2] = Oral toxicity in mice (body weight gain, abnormalities); assay type: in vivo; details: 300 mg/kg
[3] = tested on: roundworms (Toxocara canis); experiment: Anthelmintic effect on canine roundworms; assay type: in vivo; details: dog, single oral dose 5 mg/kg
Experimental: (§1) The PF 1022 substance was evaluated for its anthelmintic effect in dogs by orally administering it to dogs found to be infected with roundworms (Toxocara canis), hookworms (Ancylostoma caninum) and whipworms (Trichuris vulpisl), respectively, by scatoscopy.
(§2) The substance was orally administered once at the dose of 5 mg/kg to a dog infected with the roundworms or hookworms by admixing the substance with a small portion of the ordinary feed, and the worms eliminated and those remaining in the dog during 7 days following administration were counted.

[4] = tested on: strongyles (Strongylus spp.); experiment: Anthelmintic effect on equine strongyles; assay type: in vivo; details: horse, oral 5 mg/kg Day 0 and 2.5 mg/kg Day 1
Experimental: The PF 1022 substance was evaluated for its anthelmintic effect in a horse found by scatoscopy to be infected with roundworms (Parascaris equorum) and strongyles (Strongylus spp.) by orally administering the substance thereto.
The PF 1022 substance was suspended in water and administered with a stomach catheter at 5 mg/kg on the first day and at 2.5 mg/kg on the second day. For both the roundworms and strongyles, parasite eggs in each gram of feces (EPG) as well as parasites eliminated were counted daily for one week following the first administration. For strongyles, the number of worms in 100 g of feces was determined.

[5] = tested on: whipworms (Trichuris vulpisl); experiment: Anthelmintic effect on canine whipworms; assay type: in vivo; details: dog; for whipworms eliminated / whipworms remaining: 7 days
Experimental: as §1
Thus, the elimination was 100% in both cases. On the other hand, one of two dogs infected with the above-mentioned whipworms was given orally one single dose of 5 mg/kg and the other 10 mg/kg, and the worms eliminated and those remaining uneliminated during 7 days following administration were counted. […] At 10 mg/kg, 22 whipworms were eliminated while none were found remaining uneliminated. Thus, the elimination was 100%.

[6] = tested on: hookworms (Ancylostoma caninum); experiment: Anthelmintic effect on canine hookworms; assay type: in vivo; details: dog, single oral dose 5 mg/kg
Experimental: as §1, §2

[7] = tested on: bovine twisted stomach worms (Haemonchus contortus); experiment: In vitro test tube motility test on bovine twisted stomach worms; details: physiological salt solution, 39-40 C
Experimental: The PF 1022 substance was evaluated for its anthelmintic activity by adding it to test tubes in which bovine twisted stomach worms (Haemonchus contortus) isolated from the bovine fourth stomach were swimming.
A physiological salt solution was distributed into 4 test tubes and warmed to 39°-40° C. Three to five twisted stomachworms collected from the bovine fourth stomach were put into the medium in each test tube and allowed to swim therein. An appropriate amount of the PF 1022 substance was dissolved in a small amount of dimethyl sulfoxide and the solution was added dropwise to the medium and, after stirring for admixing, the behavior of each worm was observed. The amount of the PF 1022 substance was adjusted so that the final concentrations in the culture medium in three tubes amounted to 2 ppm, 8 ppm and 40 ppm, respectively. Dimethyl sulfoxide alone was added dropwise to the remaining test tube, which served as a control.

Solubility = assay type: physicochemical
Source text: (11) Solubility: Soluble in methanol, ethyl acetate, acetone, chloroform and dimethyl sulfoxide; insoluble in water;

[8] = tested on: small intestinal hairworms (Trichostrongylus colubriformis); experiment: Sheep digestive tract nematodes, worms remaining in the intestinal tract; assay type: in vivo; details: for Number of worms remaining in At autopsy: autopsy 7 days after administration, mean of 6 animals
Experimental: (§3) The PF 1022 substance was evaluated for its anthelmintic effect in sheep mixedly infected with fourth stomachworms (Ostertaqia circumcincta) and small intestinal hairworms (Trichostrongylus colubriformis) by administering it orally to 24 sheep artificially infected with said two worm species.
(§4) The infected sheep were divided into 4 groups of 6 animals, which were respectively given 1 mg/kg, 5 mg/kg, 10 mg/kg and 0 mg/kg (control) of the substance suspended in 0.5% CMC, via a stomach catheter. The observation items were the number of parasite eggs per gram of feces (EPG) before administration, the EPG 7 days after administration, and the number of worms remaining in the fourth stomach and that of worms remaining in the intestinal tract as found upon autopsy 7 days after administration.
(§5) Each numerical value given is the mean of 6 animals.

[9] = tested on: fourth stomachworms (Ostertaqia circumcincta) and small intestinal hairworms (Trichostrongylus colubriformis); experiment: Sheep digestive tract nematodes, mixed infection, EPG; assay type: in vivo; details: mean of 6 animals; for EPG At autopsy: 7 days after administration; for EPG Before administration: baseline
Experimental: as §3, §4, §5

In the case of `CC(C)C[C@H]1C(=O)O[C@H](Cc2ccccc2)C(=O)N(C)[C@@H](CC(C)C)C(=O)O[C@H](C)C(=O)N(C)[C@@H](CC(C)C)C(=O)O[C@H](Cc2ccccc2)C(=O)N(C)[C@@H](CC(C)C)C(=O)O[C@H](C)C(=O)N1C` [PF 1022 substance], the “EPG relative to that found before administration” value ([1]; 2 day administration at 12.5 mg/kg, day after the second day of administration) was “about half”, the EPG ([1]; oral 5.0 mg/kg x 1, Day 0 (day of first administration)) was 34 and the EPG ([1]; oral 5.0 mg/kg x 1, Day 1) was 44. It also gave an EPG ([1]; oral 5.0 mg/kg x 1, Day 2) of 61, an EPG ([1]; oral 5.0 mg/kg x 1, Day 3) of 18 and an EPG ([1]; oral 5.0 mg/kg x 1, Day 4) of 30. The EPG ([1]; oral 5.0 mg/kg x 1, Day 5) was 6, the EPG ([1]; oral 5.0 mg/kg x 1, Day 6) was 27 and the EPG ([1]; oral 5.0 mg/kg x 1, Day 7) was 7. For the same compound, the EPG ([1]; oral 5.0 mg/kg x 1, Day -1 (before administration)) was 34, the EPG ([1]; oral 5.0 mg/kg x 1, Day -2 (before administration)) was 32 and the EPG ([1]; oral 5.0 mg/kg x 1, Day -3 (before administration)) was 30. For the same compound, the EPG ([1]; oral 12.5 mg/kg x 2, Day 0 (day of first administration), 12.5 mg/kg) was 112 and 64, the EPG ([1]; oral 12.5 mg/kg x 2, Day 2, 12.5 mg/kg) was 26 and 30 and the EPG ([1]; oral 12.5 mg/kg x 2, Day 3, 12.5 mg/kg) was 34 and 41. The EPG ([1]; oral 12.5 mg/kg x 2, Day 4, 12.5 mg/kg) was 41 and 29, the EPG ([1]; oral 12.5 mg/kg x 2, Day 5, 12.5 mg/kg) was 41 and 34 and the EPG ([1]; oral 12.5 mg/kg x 2, Day 6, 12.5 mg/kg) was 42 and 40. For the same compound, the EPG ([1]; oral 12.5 mg/kg x 2, Day 7, 12.5 mg/kg) was 49 and 36, the EPG ([1]; oral 12.5 mg/kg x 2, Day -1 (before administration), 12.5 mg/kg) was 109 and 67 and the EPG ([1]; oral 12.5 mg/kg x 2, Day -2 (before administration), 12.5 mg/kg) was 109 and 58. The EPG ([1]; oral 12.5 mg/kg x 2, Day -3 (before administration), 12.5 mg/kg) was 91 and 58, the “body weight gains and abnormalities” value [2] was “normal body weight gains are obtained without any abnormalities” and the elimination [3] was 100%. The roundworms eliminated ([3]; 7 days) was “six”, the roundworms remaining ([3]; 7 days) was “no roundworms were found remaining” and the EPG ([4]; Day 0) was 265. The “Number of worms eliminated” value ([4]; Day 0) was 0 per 100 g feces, the EPG ([4]; Day 1) was 82 and the “Number of worms eliminated” value ([4]; Day 1) was 82 per 100 g feces. The EPG ([4]; Day 2) was 0.6, the “Number of worms eliminated” value ([4]; Day 2) was 0 per 100 g feces and the EPG ([4]; Day 3) was 0.4. For the same compound, the “Number of worms eliminated” value ([4]; Day 3) was 0 per 100 g feces, the EPG ([4]; Day 4) was 0 and the “Number of worms eliminated” value ([4]; Day 4) was 0 per 100 g feces. For the same compound, the EPG ([4]; Day 5) was 0, the “Number of worms eliminated” value ([4]; Day 5) was 0 per 100 g feces and the EPG ([4]; Day 6) was 0.2. The “Number of worms eliminated” value ([4]; Day 6) was 0 per 100 g feces, the “Number of worms eliminated” value ([4]; Day 7) was 0 per 100 g feces and the percent elimination ([5]; single oral dose 5 mg/kg) was 39.4%. It also gave a whipworms eliminated ([5]; single oral dose 5 mg/kg) of 327, a whipworms remaining ([5]; single oral dose 5 mg/kg) of 504 and an elimination ([5]; single oral dose 10 mg/kg) of 100%. The whipworms eliminated ([5]; single oral dose 10 mg/kg) was 22, the whipworms remaining ([5]; single oral dose 10 mg/kg) was “none” and the elimination [6] was 100%. For the same compound, the hookworms eliminated ([6]; 7 days) was “Twelve”, the hookworms remaining ([6]; 7 days) was “no hookworms were found remaining” and the “time until the worms stopped moving” value ([7]; 2 ppm) was 25 min. The “time until the worms stopped moving” value ([7]; 8 ppm) was 15 min, the “time until the worms stopped moving” value ([7]; 40 ppm) was 10 min and the Solubility (Solubility; methanol, ethyl acetate, acetone, chloroform and dimethyl sulfoxide) was “Soluble”. The Solubility (Solubility; water) was “insoluble”, the “Number of worms remaining in At autopsy” value ([8]; oral 1 mg/kg) was 8750 and the “Number of worms remaining in At autopsy” value ([8]; oral 5 mg/kg) was 8317. The “number of worms remaining in the intestinal tract relative to the control infected group” value ([8]; oral 10 mg/kg) was “about half”, the “Number of worms remaining in At autopsy” value ([8]; oral 10 mg/kg) was 5333 and the “EPG At autopsy” value ([9]; oral 1 mg/kg) was 3114. For the same compound, the “EPG Before administration” value ([9]; oral 1 mg/kg) was 2447, the “EPG At autopsy” value ([9]; oral 5 mg/kg) was 2462 and the “EPG Before administration” value ([9]; oral 5 mg/kg) was 2458. The “EPG At autopsy” value ([9]; oral 10 mg/kg) was 1970 and the “EPG Before administration” value ([9]; oral 10 mg/kg) was 2332.
